# Data: ChEMBL document CHEMBL3507680, “University of Dundee, Gates Library screen for HepG2 cell viability”
# Assay: Human HepG2 cell viability assay in 384 well format
# Type: toxicity, cell-based
# Design: dose 125 nL, time 70.5 hour; cytotoxicity at 70.5 h: concentration not given beside the values
# Details: HepG2 cells, read-out: Inhibition
row,SMILES,cytotoxicity at 70.5 h [%]
1,O=C(c1ccccn1)N1C[C@@H]2CC[C@H](C1)N(C(=O)Cc1cccs1)C2,-10
2,CCc1cn[nH]c1C1CCCN(C(=O)c2ncoc2C(C)C)C1 (centres undefined),-2.87
3,COc1ccc(CN2C[C@@H]3CC[C@H](C2)N(S(=O)(=O)C2CC2)C3)cc1,-5.41
4,Cc1ccc2oc(=O)n(CC(=O)N3CCC4(CC3)CN(C)C(=O)O4)c2c1,13.2
5,COc1ccc(Cl)cc1S(=O)(=O)N1C[C@@H]2CC[C@H](C1)N(C)C2=O,6.39
6,CCCn1nc(C)c(CNC(=O)c2snnc2C)c1C,-13.1
7,O=C(O)C1(n2ccc(-c3ccco3)n2)CCN(Cc2ccccn2)CC1,-4.75
8,CCC(CC)n1nc(C)cc1NC(=O)C1CCOC1 (centres undefined),-6.47
9,COc1ccccc1[C@@H]1CN(Cc2ccc3nsnc3c2)C[C@H]1C(=O)O,-5.24
10,N[C@@H]1c2ccccc2C2(CCN(C(=O)c3ccc(CO)o3)CC2)[C@H]1O,-5.57
11,Cc1nccn1Cc1nnc(C2CCN(c3ccncc3F)CC2)n1C,17.7
12,O=C(O)C(c1ccc2c(c1)OCO2)N1CCCCCC1 (centres undefined),-1.77
13,Cc1cc(NCc2cc3n(n2)CCCN(C(=O)C2CCC2)C3)ncn1,0.388
14,CN1CCN(CCCNCc2cc(O)c3cc(F)ccc3n2)CC1,-4.99
15,COC(=O)CCCn1ccnc1-c1ccc(OC)c(F)c1F,3.06
16,CCC(C)N(Cc1ccncc1)C(=O)CCSC (centres undefined),-10.6
17,Cc1nc2c(C(=O)N[C@H]3C[C@H]4CN(C)CCN4C3)cccc2[nH]1,-10.2
18,CN(CCCc1nccn1C)C(=O)C1CCN(C(=O)C2CCCC2)CC1,4.09
19,COc1cc2[nH]c(=O)c(CN3CCCC3C)cc2c(OC)c1OC (centres undefined),-6.4
20,CC(C)c1nccn1Cc1cc(C(=O)NCC(F)(F)F)n[nH]1,-9.18
21,COc1ccc(OCc2nccc(-c3cc(C(=O)O)ccn3)n2)cc1,-2.16
22,COCCn1c(CN2CCCCO2)cnc1S(=O)(=O)CC1CCCCC1,-2.46

row,SMILES,cytotoxicity at 70.5 h [%]
1,Cc1cc(C)c2[nH]c(=O)c(CN3CCCC4(C3)CN(C)C(=O)O4)cc2c1 (centres undefined),-8.68
2,CCC[C@H]1CN(CCS(C)(=O)=O)C[C@@H]1NC(=O)Cn1cc(C)cn1,-6.99
3,CC(=O)N1C[C@H]2CNC[C@@]2(C(=O)NCCOc2ccccc2F)C1,0.818
4,O=C(CCc1nc2ccccc2[nH]1)NC1CCOC2(CCOCC2)C1 (centres undefined),20.1
5,CSc1ncc(C(=O)N2C[C@H]3CC[C@@H]2CN(c2ncccn2)C3)cn1,24.3
6,COc1ccc(C(=O)N2C[C@@H](C(=O)O)[C@H](c3ccccc3)C2)c(C)c1,11.5
7,CCNc1ncc(C)c(-c2cnn(C)c2)n1,-13.2
8,c1ccc(-n2cnnc2CCCN2CCOCC2)cc1,-2.59
9,Cc1n[nH]c(C)c1CCCN(C)c1cc(N(C)C)ncn1,6.66
10,Cc1csc(N2CCC(CCN3CCCC3=O)CC2)n1,-14.3
11,Nc1cc(-c2cc(C(=O)O)ccc2Cl)c2cc[nH]c2n1,-8.39
12,CCOc1ccc(C2CC(=O)NCc3nc(N)sc32)cc1CO (centres undefined),-6.2
13,Cc1cc(C[C@@H]2COC[C@@H]2NC(=O)CN2CCc3ccccc3C2)on1,8.76
14,CCCc1nc(N[C@H]2COC[C@@H]2N2CCCC2)c2cnn(C)c2n1,-7.83
15,CCOc1cc(Cl)c(CN2CCC3(CCCNC3=O)C2)cc1OC (centres undefined),-5.69
16,CCn1c(C2CCN(C(=O)c3ccc4cc[nH]c4c3)CC2)n[nH]c1=O,9.25
17,Cn1cc(CN2CCCC(CCc3ccc(F)cc3F)C2)cn1 (centres undefined),-3.89
18,O=C(c1ccon1)N1CCc2ncnc(NCc3cccnc3)c2CC1,-5.39
19,CCCN1CCN(C(=O)c2cnc(C)nc2)[C@H]2CS(=O)(=O)C[C@H]21,-0.0232
20,COCCN1CC(=O)N2CC[C@@H](O)C[C@H]2C1=O,28.2
21,O=C(c1ccoc1)N1CCCN(CC2CCOc3ccccc3C2)CC1 (centres undefined),18.3
22,Cc1n[nH]c(C)c1CN1CC[C@@H]2[C@@H](CCC(=O)N2CCc2c[nH]cn2)C1,1.53

row,SMILES,cytotoxicity at 70.5 h [%]
1,CCCc1nnc(N2CCN(Cc3ccccc3OC)CC2)o1,23.6
2,CCCn1cnnc1CNC(=O)CC1C(=O)NCCN1C(C)C (centres undefined),10.7
3,Cc1nc(CN(CCc2ccccc2)C2CCN(C)CC2)no1,-10.3
4,Cc1n[nH]c(C)c1CNC(=O)c1cn(CCC2CCCCN2)nn1 (centres undefined),-1.34
5,CC(C)N(C)CCC(=O)N1CCCC(c2ccc(C(=O)O)cc2)C1 (centres undefined),-7.94
6,O=C(O)[C@]12CCCN(Cc3ccccn3)[C@@H]1CCN(c1cnccn1)C2,-3.65
7,CC(C)Cc1cc(CNC(=O)C2CCCN(C(=O)N(C)C)C2)no1 (centres undefined),-2.31
8,CCSCC(C)NCc1nn(C)c2ccc(C)cc12 (centres undefined),-5.67
9,CN(CCc1ccccn1)[C@@H]1CCN(c2cccc(C#N)n2)C[C@H]1O,0.836
10,CCc1cc(N[C@@H](CC(C)C)C(N)=O)n2nc(C)c(C)c2n1,-8.65
11,COc1cnc(N2CCCC(c3ncc[nH]3)C2)nc1 (centres undefined),-3.19
12,O=C(CCN1CCOC(C(F)(F)F)C1)NCc1ccccc1Cl (centres undefined),15.4
13,Cc1nn(C)c2nc(N3CCCCC3c3nccs3)sc12 (centres undefined),5.1
14,COCc1cc(N2CCOC(c3ccc(F)cc3)C2)ncn1 (centres undefined),-14.9
15,Cc1ccsc1[C@@H]1CCN(C(=O)CCc2nc3ccccc3[nH]2)C[C@H]1O,5.42
16,CC(=O)Cc1c(C)nn(-c2cncc(N)c2)c1C,-1.56
17,CCC(NC(=O)CC1CCN(CC)CC1)c1cn2cccnc2n1 (centres undefined),-5.63
18,CSCC(=O)N[C@H]1CC[C@H](Nc2nccc(-c3cccnc3)n2)C1,16.3
19,Cn1ccnc1CN1CCC(CCC(=O)Nc2ccccc2Cl)CC1,-2.64
20,Fc1cccc(OC2CCN(CCn3cc4ccccc4n3)CC2)c1,-21.6
21,N#Cc1cc2c(=O)n(CC(O)Cc3ccccc3)ccc2[nH]c1=O (centres undefined),-13.6
22,CCNC(=O)[C@@H]1C[C@@H](n2cc(CC3CCCCC3)nn2)CN1,-9.79

row,SMILES,cytotoxicity at 70.5 h [%]
1,CN(Cc1ccncn1)C(=O)C1(Oc2ccc(Cl)cc2)CCNCC1,-4.8
2,Cc1cnccc1-n1nc(C(C)C)nc1CCc1cnccn1,-19.8
3,COCc1noc(-c2ccc(N3CCCC3c3ccc(F)cc3)nc2)n1 (centres undefined),-3.49
4,CC(Cn1cncn1)Nc1ccc(-c2nccn2C)nn1 (centres undefined),-7.86
5,CCOc1ccc(C(=O)CCC(=O)N(C)Cc2noc(C)n2)cc1C,-6.08
6,CNc1cc(C)nc(N2C[C@H](C3CC3)[C@@H](N)C2)n1,6.57
7,O=C(c1cccnc1N1CCOC(c2ccc(F)cc2)C1)N1CCCC1 (centres undefined),-14.7
8,CCC(O)Cn1nc(CCSC)nc1-c1ccc2[nH]ccc2c1 (centres undefined),1.48
9,CNC(=O)CN(C)c1nc(-c2ccc(C(N)=O)cc2)nc2c1CCNC2,-0.358
10,N#Cc1cccnc1Oc1cc(F)c(CN2CCCC2)c(Cl)c1,-1.54
11,COCCNc1nc2c(c(NCc3cnc(C)cn3)n1)CCNCC2,-4.71
12,CCCC1(CO)CCCN(Cc2ncccn2)C1 (centres undefined),-5.25
13,CCCSCC(=O)N1CCN(c2ccc(OC)cc2)CC1C (centres undefined),-2.57
14,O=C(c1cc[nH]n1)N1CCc2ncnc(NCc3ccccn3)c2CC1,-8.31
15,CSCCc1n[nH]c2c1CN(S(=O)(=O)c1cn(C)c(C)n1)CC2,-4.85
16,O=C(CCc1ccsc1)N1CCC(n2cc(CO)nn2)CC1,-13.1
17,Cn1ccnc1SCCNc1nccc(C(F)(F)F)n1,16
18,Fc1cc(Cl)cnc1N1CCCC(c2nccn2Cc2ccncc2)C1 (centres undefined),-14
19,c1cnnc(N2CCC(c3nnc(Cn4ccnc4)n3C3CC3)CC2)c1,-4.27
20,O=C(COCC1CCCCO1)N1CCN(Cc2ccccc2F)C(=O)C1 (centres undefined),-1.62
21,CN(CCCC1CCCC1)C(=O)c1cc(CN2CCC(O)CC2)on1,10.4
22,COCC1(CNC(=O)[C@@]23CNC[C@@H]2CN(C2CCCC2)C3)CC1,-3.2

row,SMILES,cytotoxicity at 70.5 h [%]
1,CN(C)CC1(O)CCCN(Cc2ccccc2OCC(=O)N(C)C)C1 (centres undefined),2.4
2,Cc1nc(N2C[C@H]3CC[C@@H](C2)N3)nc2cc(S(C)(=O)=O)ccc12,-2.58
3,CCn1nc(C)c(NC(=O)CN2CC[C@H](CO)[C@@H](O)C2)c1C,-11.7
4,COc1ccc(CCC(=O)N2CCNCC2C(=O)N2CCOCC2)cc1 (centres undefined),-7.95
5,CNC(=O)C(C)(C)NC(=O)c1cc(COc2cccc(C(C)=O)c2)[nH]n1,-6.29
6,Cc1cccc(OC2CCN(Cc3ncc[nH]3)CC2)c1,15.5
7,Fc1ccccc1C(CNc1ccncn1)N1CCCC1 (centres undefined),-8.28
8,Cc1ncsc1CCN(C)Cc1cc2n(n1)CCN(S(C)(=O)=O)C2,-6.95
9,CCc1nc(CN(C)Cc2nc(-c3ccccc3Cl)oc2C)no1,-14.3
10,COCCN(C)C[C@@H]1CN(C(=O)c2c(F)ccc(OC)c2F)C[C@@H]1CO,47.7
11,O=C(CSc1ccccn1)N1CCN(CCO)[C@@H]2CS(=O)(=O)C[C@@H]21,2.3
12,CC(C)[C@@H]1CN(C(=O)CN(C)Cc2ccccc2)C[C@H]1C(=O)O,-6.53
13,COc1ccccc1OC1CCN(C(=O)CCCn2ccnc2)CC1,-6.19
14,CCN(CC1CCOCC1)C(=O)Cn1cccc(C(F)(F)F)c1=O,-7.19
15,CSCc1noc(CNC(=O)[C@H]2CNC[C@@H](C(=O)N3CCCC3)C2)n1,-14.4
16,CN(Cc1cccc2cnccc12)C(=O)CCc1n[nH]c2c1CCCC2,-9.31
17,CC(C)c1ncc(-c2cc(C3CCC3)nc(N)c2C#N)cn1,-8.31
18,Fc1cnc(N2CCN(Cc3ccc(-c4cc[nH]n4)o3)CC2)nc1,-3.42
19,Cc1nn(C)c(Oc2ccc(Cl)cc2)c1CN1CCOC(CN)C1 (centres undefined),-2.25
20,O=C(c1cc[nH]n1)N1CCC(c2nccn2Cc2ccncc2)CC1,0.529
21,CC(C)CN1C(=O)CC[C@H]2CN(C(=O)c3ncc[nH]3)CC[C@H]21,-0.867
